Experimental data: the NIST ThermoML archive (doi:10.1021/je1009619)
± gives the expanded uncertainty stated by the source.

Assay: xn = mol fraction of the nth substance listed
Details: Liquid, Vibrating tube method

CC1=CC[C@H]2C[C@@H]1C2(C)C [(S)-2-pinene] + C=C(C)[C@H]1CC=C(C)CC1
mass density [kg/m3]
Details	x2 = 0	x2 = 0.0976	x2 = 0.1991	x2 = 0.2983	x2 = 0.3955	x2 = 0.5036	x2 = 0.5967	x2 = 0.7024	x2 = 0.8084	x2 = 0.906
283.15 K, 20000 kPa	880 ± 0.9	878.3 ± 0.9	876.4 ± 0.9	874.6 ± 0.9	872.9 ± 0.9	870.9 ± 0.9	869.2 ± 0.9	867.4 ± 0.9	865.3 ± 0.9	863.5 ± 0.9
283.15 K, 25000 kPa	883.2 ± 0.9	881.4 ± 0.9	879.3 ± 0.9	877.6 ± 0.9	875.8 ± 0.9	873.8 ± 0.9	872.1 ± 0.9	870.3 ± 0.9	868.3 ± 0.9	866.6 ± 0.9
283.15 K, 30000 kPa	886.3 ± 0.9	884.3 ± 0.9	882.4 ± 0.9	880.5 ± 0.9	878.7 ± 0.9	876.7 ± 0.9	875.1 ± 0.9	873.1 ± 0.9	871.3 ± 0.9	869.2 ± 0.9
283.15 K, 35000 kPa	889.4 ± 0.9	887.5 ± 0.9	885.4 ± 0.9	883.4 ± 0.9	881.7 ± 0.9	879.7 ± 0.9	878 ± 0.9	876.1 ± 0.9	873.9 ± 0.9	871.9 ± 0.9
283.15 K, 40000 kPa	892.5 ± 1	890.4 ± 1	888.5 ± 1	886.5 ± 1	884.7 ± 1	882.7 ± 1	880.9 ± 1	878.9 ± 1	876.5 ± 1	874.4 ± 1
298.15 K, 20000 kPa	868.8 ± 0.9	866.9 ± 0.9	865.4 ± 0.9	863.5 ± 0.9	861.7 ± 0.9	860 ± 0.9	858.4 ± 0.9	856.9 ± 0.9	855.1 ± 0.9	853 ± 0.9
298.15 K, 25000 kPa	872.1 ± 0.9	870.3 ± 0.9	868.6 ± 0.9	866.8 ± 0.9	865 ± 0.9	863.2 ± 0.9	861.6 ± 0.9	859.8 ± 0.9	858 ± 0.9	856.1 ± 0.9
298.15 K, 30000 kPa	875.3 ± 0.9	873.5 ± 0.9	871.7 ± 0.9	869.8 ± 0.9	868.1 ± 0.9	866.3 ± 0.9	864.7 ± 0.9	862.8 ± 0.9	861 ± 0.9	859.1 ± 0.9
298.15 K, 35000 kPa	878.6 ± 0.9	876.7 ± 0.9	875 ± 0.9	873.1 ± 0.9	871.3 ± 0.9	869.5 ± 0.9	867.9 ± 0.9	865.9 ± 0.9	864.1 ± 0.9	862.2 ± 0.9
298.15 K, 40000 kPa	881.9 ± 1	880 ± 1	878.1 ± 1	876.3 ± 1	874.5 ± 1	872.6 ± 1	871 ± 1	869 ± 1	867.1 ± 1	865.2 ± 1
313.15 K, 20000 kPa	858 ± 0.9	856.2 ± 0.9	854.4 ± 0.9	852.6 ± 0.9	851 ± 0.9	849.2 ± 0.9	847.6 ± 0.9	845.9 ± 0.9	844.1 ± 0.9	842.4 ± 0.9
313.15 K, 25000 kPa	861.3 ± 0.9	859.5 ± 0.9	857.7 ± 0.9	855.9 ± 0.9	854.3 ± 0.9	852.5 ± 0.9	851 ± 0.9	849.2 ± 0.9	847.4 ± 0.9	845.7 ± 0.9
313.15 K, 30000 kPa	864.7 ± 0.9	862.8 ± 0.9	861.1 ± 0.9	859.3 ± 0.9	857.6 ± 0.9	855.7 ± 0.9	854.2 ± 0.9	852.4 ± 0.9	850.5 ± 0.9	848.8 ± 0.9
313.15 K, 35000 kPa	867.9 ± 0.9	866.2 ± 0.9	864.5 ± 0.9	862.6 ± 0.9	860.9 ± 0.9	858.9 ± 0.9	857.4 ± 0.9	855.6 ± 0.9	853.8 ± 0.9	852 ± 0.9
313.15 K, 40000 kPa	871.3 ± 1	869.5 ± 1	867.8 ± 1	866 ± 1	864.2 ± 1	862.2 ± 1	860.6 ± 1	858.8 ± 1	856.9 ± 1	855.1 ± 1
328.15 K, 20000 kPa	846.7 ± 0.9	845.1 ± 0.9	843.4 ± 0.9	841.8 ± 0.9	840.2 ± 0.9	838.4 ± 0.9	837 ± 0.9	835.3 ± 0.9	833.5 ± 0.9	832 ± 0.9
328.15 K, 25000 kPa	850.4 ± 0.9	848.7 ± 0.9	847 ± 0.9	845.2 ± 0.9	843.6 ± 0.9	841.9 ± 0.9	840.4 ± 0.9	838.6 ± 0.9	836.9 ± 0.9	835.4 ± 0.9
328.15 K, 30000 kPa	854 ± 0.9	852.3 ± 0.9	850.6 ± 0.9	848.8 ± 0.9	847.2 ± 0.9	845.4 ± 0.9	843.9 ± 0.9	842.1 ± 0.9	840.4 ± 0.9	838.7 ± 0.9
328.15 K, 35000 kPa	857.5 ± 0.9	855.8 ± 0.9	854 ± 0.9	852.3 ± 0.9	850.6 ± 0.9	848.8 ± 0.9	847.3 ± 0.9	845.5 ± 1	843.7 ± 1	841.9 ± 1
328.15 K, 40000 kPa	861.1 ± 1	859.4 ± 1	857.5 ± 1	855.8 ± 1	854.1 ± 1	852.1 ± 1	850.6 ± 1	848.8 ± 1	847.1 ± 1	845.3 ± 1
343.15 K, 20000 kPa	835.9 ± 0.9	834.4 ± 0.9	832.8 ± 0.9	831.2 ± 0.9	829.6 ± 0.9	827.9 ± 0.9	826.5 ± 0.9	824.8 ± 0.9	823.1 ± 0.9	821.6 ± 0.9
343.15 K, 25000 kPa	839.7 ± 0.9	838.1 ± 0.9	836.5 ± 0.9	834.9 ± 0.9	833.4 ± 0.9	831.7 ± 0.9	830.2 ± 0.9	828.4 ± 0.9	826.8 ± 0.9	825.2 ± 0.9
343.15 K, 30000 kPa	843.8 ± 0.9	842.1 ± 0.9	840.4 ± 0.9	838.8 ± 0.9	837.1 ± 0.9	835.4 ± 0.9	834 ± 0.9	832.1 ± 0.9	830.4 ± 0.9	828.8 ± 0.9
343.15 K, 35000 kPa	847.7 ± 1	846 ± 1	844.2 ± 1	842.5 ± 1	840.9 ± 1	839.1 ± 1	837.6 ± 1	835.9 ± 1	834.1 ± 1	832.2 ± 1
343.15 K, 40000 kPa	851.4 ± 1	849.6 ± 1	847.9 ± 1	846.2 ± 1	844.5 ± 1	842.7 ± 1	841.2 ± 1	839.5 ± 1	837.3 ± 1	835.5 ± 1
358.15 K, 20000 kPa	825 ± 0.9	823.5 ± 0.9	822.1 ± 0.9	820.7 ± 0.9	819.3 ± 0.9	817.9 ± 0.9	816.5 ± 0.9	815.1 ± 0.9	813.3 ± 0.9	811.5 ± 0.9
358.15 K, 25000 kPa	829.2 ± 0.9	827.7 ± 0.9	826 ± 0.9	824.6 ± 0.9	823.1 ± 0.9	821.6 ± 0.9	820.2 ± 0.9	818.7 ± 0.9	816.9 ± 0.9	815.3 ± 0.9
358.15 K, 30000 kPa	833.3 ± 0.9	831.6 ± 0.9	830 ± 0.9	828.4 ± 0.9	826.9 ± 0.9	825.3 ± 0.9	823.9 ± 0.9	822.2 ± 0.9	820.6 ± 0.9	818.7 ± 0.9
358.15 K, 35000 kPa	837.4 ± 1	835.7 ± 1	834 ± 1	832.2 ± 1	830.7 ± 1	829 ± 1	827.5 ± 1	825.8 ± 1	824 ± 1	822.4 ± 1
358.15 K, 40000 kPa	841.5 ± 1	839.7 ± 1	838 ± 1	836.2 ± 1	834.6 ± 1	832.8 ± 1	831.2 ± 1	829.4 ± 1	827.6 ± 1	825.9 ± 1
